Test results published in US20240252527A9, “NUCLEOSIDE DRUGS FOR THE TREATMENT OR PREVENTION OF CORONAVIRUS INFECTION AND THEIR USES” (Miracure Biotechnology Limited, priority 2022, published 2024).
Read-outs that look alike come from different tables or passages of the source.

Key:
229E = 229E MRC5 CPE assay (cytopathic experiment); format: cell-based, coronavirus 229E (HCoV-229E)
Procedure: (§1) Cells were seeded into microplates at a certain density and cultured overnight in a incubator at 5% CO2, 37° C. The next day, double-diluted compound and virus were added. It was set up a cell control group (cells without treatment with a compound or virus infection), a virus control group (cells infected with virus, no compound treatment) and a culture medium control group (medium only). Cells were cultured in the incubator for 3 days (229E) or 7 days (OC43). Cytotoxicity experiments were performed under the same conditions as antiviral experiments, but without virus infection. Cell viability was tested using a cell viability assay kit Cell Titer Glo (Promega).
(§2) The antiviral activity and cytotoxicity of the compounds were expressed by the inhibition rate (%) and cell viability (%) of the compounds against virus-induced cytopathic effects at different concentrations, respectively. Nonlinear fitting analysis on the inhibition rate and cell viability of the compounds were carried out with the GraphPad Prism, and the half effective concentration (EC50), the […] effective concentration (EC90), the half cytotoxic concentration (CC50) and the 90% cytotoxic concentration of the compound […] values were calculated.

OC43 = OC43 Huh7 CPE assay (cytopathic experiment); format: cell-based, coronavirus OC43 (HCoV-OC43); settings: for EC50: read-out: OC43 Huh7 CPE assay (μM) EC50; for EC90: read-out: OC43 Huh7 CPE assay (μM) EC90
Procedure: as §1, §2

[1] = Human coronavirus 229E, MRC5, 72 h, read-out: 229E MRC5 CPE assay (μM) EC50
[2] = Human coronavirus 229E, MRC5, 72 h, read-out: 229E MRC5 CPE assay (μM) EC90
[3] = Betacoronavirus 1, OC43, Huh-7, 168 h
[4] = Huh7 cells, OC43 virus, 7 days, Cell Titer Glo
[5] = Human coronavirus 229E, MRC5, 72 h; read-out: 229E MRC5 CPE assay (μM) EC50
[6] = Human coronavirus 229E, MRC5, 72 h; read-out: 229E MRC5 CPE assay (μM) EC90
[7] = Betacoronavirus 1, Huh-7, 168 h, Huh7 cells, OC43 virus, 7 days, Cell Titer Glo

Compound	EC50 (229E; [1])	EC90 (229E; [2])	EC50 (OC43; [3])	EC90 (OC43; [3])	further results
CCCC(CCC)C(=O)OCO[P@](=O)(N[C@@H](C)C(=O)OCC(CC)CC)OC[C@H]1O[C@@](C#N)(c2ccc3c(N)ncnn23)[C@H](O)[C@@H]1O [Compound 070]	0.1 to 0.5 µM	0.1 to 0.5 µM	0.1 to 0.5 µM	> 0.5 µM	–
CCCC(CCC)C(=O)OC(C)O[P@]1(=O)OC[C@H]2O[C@@](C#N)(c3ccc4c(N)ncnn34)[C@H](O)[C@@H]2O1 (stereo partly shown) [Compound 141]	> 0.5 µM	> 0.5 µM	> 0.5 µM	> 0.5 µM	–
N#C[C@@]1(c2ccc3c(N)ncnn23)OC2CO[P@](=O)(OCOC(=O)c3cccnc3)O[C@H]2[C@H]1O (stereo partly shown) [Compound 179]	> 0.5 µM	> 0.5 µM	> 0.5 µM	> 0.5 µM	–
CCCC(CCC)C(=O)OC(C)O[P@]1(=O)OC[C@H]2O[C@@](C#N)(c3ccc4c(N)ncnn34)[C@H](O)[C@@H]2O1 (stereo partly shown) [Compound 142]	–	–	–	–	EC50 (229E; read-out: 229E MRC5 CPE assay (μM) EC50; MRC5 cells, 229E virus, 3 days, Cell Titer Glo): > 0.5 µM; EC90 (229E; read-out: 229E MRC5 CPE assay (μM) EC90; MRC5 cells, 229E virus, 3 days, Cell Titer Glo): > 0.5 µM; EC50 (OC43; [4]): > 0.5 µM; EC90 (OC43; [4]): > 0.5 µM
CC(C)OC(=O)C(C)(C)N[P@](=O)(OCOC(=O)c1cccnc1)OC[C@H]1O[C@@](C#N)(c2ccc3c(N)ncnn23)[C@H](O)[C@@H]1O [Compound 176]	> 0.5 µM	> 0.5 µM	> 0.5 µM	> 0.5 µM	–
CCCN(CCC)S(=O)(=O)c1ccc(C(=O)OCO[P@@](=O)(NC(C)(C)C(=O)OC(C)C)OC[C@H]2O[C@@](C#N)(c3ccc4c(N)ncnn34)[C@H](O)[C@@H]2O)cc1 [Compound 162]	> 0.5 µM	> 0.5 µM	> 0.5 µM	> 0.5 µM	–
CCCC(CCC)C(=O)OCO[P@@](=O)(N[C@@H](C)C(=O)OC(C)C)OC[C@H]1O[C@@](C#N)(c2ccc3c(N)ncnn23)[C@H](O)[C@@H]1O [Compound 075]	0.1 to 0.5 µM	0.1 to 0.5 µM	0.1 to 0.5 µM	> 0.5 µM	–
CCC(CC)COC(=O)[C@H](C)N[P@@](=O)(OCOC(=O)OC(C)C)OC[C@H]1O[C@@](C#N)(c2ccc3c(N)ncnn23)[C@H](O)[C@@H]1O [Compound 076]	< 0.1 µM	0.1 to 0.5 µM	0.1 to 0.5 µM	0.1 to 0.5 µM	–
CC(C)(C)C(=O)OCOP(=O)(OCOC(=O)C(C)(C)C)OC[C@H]1O[C@@](C#N)(c2ccc3c(N)ncnn23)[C@H](O)[C@@H]1O [Compound 196]	0.1 to 0.5 µM	> 0.5 µM	0.1 to 0.5 µM	> 0.5 µM	–
CCN(CC)Cc1cc(Nc2ccnc3cc(Cl)ccc23)ccc1O[P@](=O)(N[C@@H](C)C(=O)OC)OC[C@H]1O[C@@](C#N)(c2ccc3c(N)ncnn23)[C@H](O)[C@@H]1O [Compound 087]	–	–	–	–	EC50 (229E; [5]): > 0.5 µM; EC90 (229E; [6]): > 0.5 µM; EC50 (OC43; [7]): > 0.5 µM; EC90 (OC43; [7]): > 0.5 µM
[2H]c1cc([C@]2(C#N)O[C@@H]3CO[P@](=O)(OCOC(=O)C(CCC)CCC)O[C@H]3[C@H]2O)n2ncnc(N)c12 [Compound 210]	< 0.1 µM	< 0.1 µM	< 0.1 µM	0.1 to 0.5 µM	–
N#C[C@@]1(c2ccc3c(N)ncnn23)O[C@@H]2COP(=O)(O)O[C@H]2[C@H]1O [Compound 094]	> 0.5 µM	> 0.5 µM	> 0.5 µM	> 0.5 µM	–
CCCC(CCC)C(=O)OCO[P@@](=O)(OC[C@H]1O[C@@](C#N)(c2ccc3c(N)ncnn23)[C@H](O)[C@@H]1O)Oc1cccc2ccccc12 [Compound 224]	–	–	> 0.5 µM	> 0.5 µM	EC50 (229E; [5]): > 0.5 µM; EC90 (229E; [6]): > 0.5 µM
CC(C)(C)C(=O)O[C@@H]1[C@@H]2O[P@](=O)(O)OC[C@H]2O[C@@]1(C#N)c1ccc2c(N)ncnn12 [Compound 200]	> 0.5 µM	> 0.5 µM	> 0.5 µM	> 0.5 µM	–
[2H]c1cc([C@]2(C#N)O[C@@H]3CO[P@](=O)(OCC)O[C@H]3[C@H]2O)n2ncnc(N)c12 [Compound 232]	–	–	–	–	EC50 (229E; [5]): > 0.5 µM; EC90 (229E; [6]): > 0.5 µM; EC50 (OC43; [7]): > 0.5 µM; EC90 (OC43; [7]): > 0.5 µM
CC(C)OC(=O)C(C)(C)N[P@](=O)(OCOC(=O)CCCc1ccccc1)OC[C@H]1O[C@@](C#N)(c2ccc3c(N)ncnn23)[C@H](O)[C@@H]1O [Compound 270]	> 0.5 µM	> 0.5 µM	> 0.5 µM	> 0.5 µM	–
